The values below come from patent US20070048782A1, “Methods for assessing and treating leukemia” (priority 2001, published 2007).

Assay [1] concerns AML-like cell lines (AML-193, HL-60, THP-1, U-937). The experiment in a line: Time course assay with cDNA microarray gene expression profiling of treated AML-like cell lines. Type of assay: cell-based. The following applies: 100 nM. The procedure: Duplicate cultures of the cells of Example 1 were inoculated into 6-well plates at an initial concentration of 1×10^5 cells/ml. (B)-6-[amino(4-chlorophenyl)(1-methyl-1H-imidazol-5-yl)methyl]-4-(3-chlorophenyl)-1-methyl-2(1H)-quinolinone) was supplemented at a concentration of 100 nM in 3 μl of DMSO directly to the culture medium. The concentration of 100 nM was chosen for the subsequent time course experiments to normalize the treatment protocol based, in part, on the results of Example 2. Duplicate control cultures were grown in medium containing 0.1% DMSO. Duplicate cultures were harvested daily for a total of six days. Cells were counted, assayed for viability, and total RNA isolated according to the manufacturer's protocol (Qiagen RNeasy). […] RNA was treated with DNase1 (Qiagen DNase1 kit) to remove any residual genomic DNA. Linear amplification of RNA was conducted according to the procedure described in U.S. Pat. No. 5,545,522 to Van Gelder et. al. Aliquots of 5 μg of aRNA were then prepared for hybridization to cDNA arrays. […]
The arrays contained 7452 cDNAs from the IMAGE consortium (Integrated Molecular Analysis of Genome and their Expression: Research Genetics, Huntsville, Ala.) and Incyte libraries. […] The fluorescence intensity for each spot was analyzed with AUTOGENE software (Biodiscovery, Los Angeles). […]

Assay [2] deals with blast cells in bone marrow. The experiment in a line: Clinical response of AML patients treated with FTI (blast cells in bone marrow aspirates). Type of assay: in vivo. The following applies: 600 mg twice daily over a 21 day period. The source says:
The therapeutic agents referred to in this specification are FTIs. They take on a multitude of forms but share the essential inhibitory function of interfering with or lessening the farnesylation of proteins implicated in cancer and proliferative diseases. Preferably, the FTIs are those indicated for the treatment of leukemias such as AML. A patient who responds to an FTI is one in whom a reduction of more than 50% of blast cells is seen in bone marrow following treatment with the FTI.
Bone marrow aspirates were obtained from two patients diagnosed with AML who had been treated with FTI. These AML patients were administered 600 mg (B)-6-[amino(4-chlorophenyl)(1-methyl-1H-imidazol-5-yl)methyl]-4-(3-chlorophenyl)-1-methyl-2(1H)-quinolinone) twice daily over a 21 day period. Bone marrow aspirates were taken at baseline and once a week for the three weeks of treatment. […] Response was determined as a reduction of more than 50% of blast cells in bone marrow aspirates. The aspirates were diluted to 15 ml with PBS and Ficoll-density centrifuged. White blood cells were washed twice with PBS, resuspended in FBS with 10% DMSO and immediately frozen at −80° C. Cells were cryogenically preserved to maintain cell viability. Samples were thawed at 37° C. and 10× volume of RPMI with 20% FBS was added drop-wise over a period of 5 min. […] Cell viability was determined by Trypan Blue assay. […]

The next assay has as its system U-937 cells. In words: Toxic dose assay, viable cell count by trypan blue exclusion at day seven. Type of assay: cell-based. The following applies: seven days of treatment, duplicate runs, read-out: IC50 (dose at which the number of viable cells in the treated sample was 50% of that in the control at day seven). As to the method: (§1) The AML-like cell lines HL-60 (promyelocytic) and U-937 (promonocytic) were obtained from the ATCC. AML-193 (monocytic) and THP-1 (monocytic) cells were obtained from the RW Johnson Pharmaceutical Research Center, San Diego. Cells were grown in Roswell Park Memorial Institute medium (RPMI) with 20% Fetal Bovine Serum (FBS). AML-193 was also supplemented with granulocyte-macrophage colony-stimulating factor (GM-CSF) (10 ng/ml), insulin (0.005 mg/ml), and transferrin (0.005 mg/ml).
(§2) The cells of Example 1 were inoculated into 6-well plates at an initial concentration of 1×10^5 cells/ml. (B)-6-[amino(4-chlorophenyl)(1-methyl-1H-imidazol-5-yl)methyl]-4-(3-chlorophenyl)-1-methyl-2(1H)-quinolinone) was added at concentrations ranging form 0.5 to 500 nM in 3 μl of DMSO directly to the culture medium. Control cells from Example 1 were grown in medium alone or in medium supplemented with vehicle (0.1% DMSO). Cell numbers were counted at days four and seven in a hemocytometer and cell viability was determined by trypan blue exclusion assay. The IC50 was defined as the dose at which the number of viable cells in the treated sample was 50% of that in the control at day seven. Calculations were made based on duplicate runs of the experiment. The IC50 of the four cell lines was calculated after seven days of treatment with the FTI.

The subject of the next assay is HL-60 cells. Described as above. Type of assay: cell-based. Conditions: seven days of treatment, duplicate runs, read-out: IC50 (dose at which the number of viable cells in the treated sample was 50% of that in the control at day seven). The procedure:
as §1, §2

A further assay deals with AML-193 cells. Described as above. Type of assay: cell-based. The following applies: seven days of treatment, duplicate runs, read-out: IC50 (dose at which the number of viable cells in the treated sample was 50% of that in the control at day seven). As to the method: as §1, §2
Another assay relates to THP-1 cells. The assay is described as above. Type of assay: cell-based. Conditions: seven days of treatment, duplicate runs, read-out: IC50 (dose at which the number of viable cells in the treated sample was 50% of that in the control at day seven). As to the method:
as §1, §2

What is called IC50 is the point on the concentration scale where inhibition reaches its midpoint.

Regarding `Cn1cncc1[C@@](N)(c1ccc(Cl)cc1)c1ccc2c(c1)c(-c1cccc(Cl)c1)cc(=O)n2C` [(B)-6-[amino(4-chlorophenyl)(1-methyl-1H-imidazol-5-yl)methyl]-4-(3-chlorophenyl)-1-methyl-2(1H)-quinolinone)], the “Overall change in gene expression, treated versus control samples from the same day (scatter-plot correlation)” value in assay [1] is on record as “no gross changes in gene expression”. Moreover, the “Response (reduction of more than 50% of blast cells in bone marrow aspirates)” value in assay [2] (AML patient one) is recorded as “responded”; in assay [2] (AML patient two) it was “did not respond”. Further, the IC50 with U-937 cells was found to be 44 nM; in the assay with HL-60 cells it was 24 nM; in the assay on AML-193 cells, 134 nM; with THP-1 cells, 19 nM.
